Results taken from patent US11033535B2, “Oxadiazoles and thiadiazoles as TGF-β inhibitors” (Southern Research Institute, priority 2017, dated 2021).
Read-outs that look alike come from different tables or passages of the source.

Test: Pharmacokinetic evaluation following a single oral and intravenous administration
Type: in vivo, CD1 mouse
Experimental: A NMP stock solution was prepared by adding 1.136 mL of NMP to 5.68 mg of compound no. 42140 with vortexing and sonification, to obtain a solution with a concentration at 5 mg/mL of 42140:01. Next, to prepare an intravenous formulation, 0.100 mL of the 5 mg/mL stock solution was placed in a new vial. 0.100 mL of NMP and 0.400 mL of PEG400 were added with vortexing and sonification, followed by addition of 0.400 mL of saline with vortexing and sonification. […] 42140:01. Alternatively, to prepare an oral formulation, 0.200 mL of the 5 mg/mL stock solution was placed in a new vial. 0.400 mL of PEG400 was added with vortexing and sonification, followed by addition of 0.400 mL of saline with vortexing and sonifiction. […] 42140:01.
(§1) Briefly, the desired serial concentrations of working solutions were achieved by diluting a stock solution of the compound with 100% acetonitrile. 3 μL of working solutions (5, 10, 20, 50, 100, 500, 1000, 5000, 10000 ng/mL) were added to 30 μL of the blank CD1 mouse plasma to achieve calibration standards of 0.5-1000 ng/mL (0.5, 1, 2, 5, 10, 50, 100, 500, 1000 ng/mL) in a total volume of 33 μL. Five quality control samples at 1 ng/mL, 2 ng/mL, 5 ng/mL, 50 ng/mL and 800 ng/mL for plasma were prepared independently of those used for the calibration curves. These QC samples were prepared on the day of analysis in the same way as calibration standards.
Next, 33 μL standards, 33 μL QC samples, and 33 μL unknown samples (30 μL plasma with 3 μL blank solution) were added to 200 μL of acetonitrile containing IS mixture for precipitating protein, respectively. Then the samples were vortexed for 30 s. After centrifugation at 4 degree Celsius, 4000 rpm for 15 min, 3 μL of supernatant was injected into the LC/MS/MS system for quantitative analysis.
HPLC analysis was performed using 100% water with 0.1% formic acid (Solution A) and 100% acetonitrile with 0.1% formic acid (Solution B) with a flow rate of 0.6 mL/min.
A NMP stock solution was prepared by adding 2.092 mL of NMP to 10.46 mg of […] with vortexing and sonification, to obtain a solution with a concentration at 5 mg/mL of […]. Next, to prepare an intravenous formulation, 0.100 mL of the 5 mg/mL stock solution was placed in a new vial. 0.100 mL of NMP and 0.400 mL of PEG400 were added with vortexing and sonification, followed by addition of 0.400 mL of saline with vortexing and sonification. […] 42320:01. Alternatively, to prepare an oral formulation, 0.200 mL of the 5 mg/mL stock solution was placed in a new vial. 0.400 mL of PEG400 was added with vortexing and sonification, followed by addition of 0.400 mL of saline with vortexing and sonifiction. […] 42320:01.
as §1, with “50 ng/mL,” for “50 ng/mL”

[1] = CD1, mouse, plasma, po, 5 mg/kg, Table 11, PO Dose: 5 mg/kg, Mouse 4, read-out: Concentration
[2] = CD1, mouse, plasma, po, 5 mg/kg, Table 11, PO Dose: 5 mg/kg, Mouse 5, read-out: Concentration
[3] = CD1, mouse, plasma, po, 5 mg/kg, Table 11, PO Dose: 5 mg/kg, Mouse 6, read-out: Concentration
[4] = CD1, mouse, plasma, po, 5 mg/kg, Table 11, PO Dose: 5 mg/kg, mean, read-out: Concentration, Mean
[5] = Table 10, IV Dose: 1 mg/kg, Mouse 1
[6] = Table 10, IV Dose: 1 mg/kg, Mouse 2
[7] = Table 10, IV Dose: 1 mg/kg, Mouse 3
[8] = Table 10, IV Dose: 1 mg/kg, mean
[9] = Table 12, PO Dose: 5 mg/kg, Mouse 4
[10] = Table 12, PO Dose: 5 mg/kg, Mouse 5
[11] = Table 12, PO Dose: 5 mg/kg, Mouse 6
[12] = Table 12, PO Dose: 5 mg/kg, mean

SMILES: CC(=O)N[C@@H](Cc1ccc(CN(C)C)cc1)c1nnc(-c2cccc(OC(F)(F)F)c2)s1 [Compound 42320, N-(2-(4-((dimethylamino)methyl)phenyl)-1-(5-(3-(trifluoromethoxy)phenyl)-1,3,4-thiadiazol-2-yl)ethyl)acetamide]
- concentration at 2 h [1]: 0.165 µg/mL
- concentration at 2 h [2]: 0.1 µg/mL
- concentration at 2 h [3]: 0.105 µg/mL
- concentration at 2 h [4]: 0.123 µg/mL
- concentration at 4 h [1]: 0.0884 µg/mL
- concentration at 4 h [2]: 0.0642 µg/mL
- concentration at 4 h [3]: 0.0777 µg/mL
- concentration at 4 h [4]: 0.0768 µg/mL
- concentration at 8 h [1]: 0.049 µg/mL
- concentration at 8 h [2]: 0.0372 µg/mL
- concentration at 8 h [3]: 0.0374 µg/mL
- concentration at 8 h [4]: 0.0412 µg/mL
- concentration at 24 h (CD1, mouse, plasma, po, 5 mg/kg, Table 11, PO Dose: 5 mg/kg, 24 h, Mouse 6, read-out: Concentration): 0.00326 µg/mL
- AUC(0-inf) (CD1, mouse, plasma, po, 5 mg/kg, Table 12, PO Dose: 5 mg/kg, Mouse 4, read-out: AUCInf): 1.11 µg·h/mL
- AUC(0-t) (CD1, mouse, plasma, po, 5 mg/kg, Table 12, PO Dose: 5 mg/kg, Mouse 4, read-out: AUClast): 0.856 µg·h/mL
- Cmax (CD1, mouse, plasma, po, 5 mg/kg, Table 12, PO Dose: 5 mg/kg, Mouse 4, read-out: Cmax): 0.201 µg/mL
- MRT inf (CD1, mouse, plasma, po, 5 mg/kg, Table 12, PO Dose: 5 mg/kg, Mouse 4, read-out: MRTInf—obs): 5.27 h
- half-life (CD1, mouse, plasma, po, 5 mg/kg, Table 12, PO Dose: 5 mg/kg, Mouse 4, read-out: T1/2 (converted)): 3.56 h
- AUC(0-inf) (CD1, mouse, plasma, po, 5 mg/kg, Table 12, PO Dose: 5 mg/kg, Mouse 5, read-out: AUCInf): 0.801 µg·h/mL
- AUC(0-t) (CD1, mouse, plasma, po, 5 mg/kg, Table 12, PO Dose: 5 mg/kg, Mouse 5, read-out: AUClast): 0.569 µg·h/mL
- Cmax (CD1, mouse, plasma, po, 5 mg/kg, Table 12, PO Dose: 5 mg/kg, Mouse 5, read-out: Cmax): 0.121 µg/mL
- MRT inf (CD1, mouse, plasma, po, 5 mg/kg, Table 12, PO Dose: 5 mg/kg, Mouse 5, read-out: MRTInf—obs): 6.33 h
- half-life (CD1, mouse, plasma, po, 5 mg/kg, Table 12, PO Dose: 5 mg/kg, Mouse 5, read-out: T1/2 (converted)): 4.31 h
- AUC(0-inf) (CD1, mouse, plasma, po, 5 mg/kg, Table 12, PO Dose: 5 mg/kg, Mouse 6, read-out: AUCInf): 0.961 µg·h/mL
- AUC(0-t) (CD1, mouse, plasma, po, 5 mg/kg, Table 12, PO Dose: 5 mg/kg, Mouse 6, read-out: AUClast): 0.94 µg·h/mL
- Cmax (CD1, mouse, plasma, po, 5 mg/kg, Table 12, PO Dose: 5 mg/kg, Mouse 6, read-out: Cmax): 0.122 µg/mL
- MRT inf (CD1, mouse, plasma, po, 5 mg/kg, Table 12, PO Dose: 5 mg/kg, Mouse 6, read-out: MRTInf—obs): 5.84 h
- half-life (CD1, mouse, plasma, po, 5 mg/kg, Table 12, PO Dose: 5 mg/kg, Mouse 6, read-out: T1/2 (converted)): 4.42 h
- AUC(0-inf) (CD1, mouse, plasma, po, 5 mg/kg, Table 12, PO Dose: 5 mg/kg, mean, read-out: AUCInf, Mean): 0.956 µg·h/mL
- AUC(0-t) (CD1, mouse, plasma, po, 5 mg/kg, Table 12, PO Dose: 5 mg/kg, mean, read-out: AUClast, Mean): 0.788 µg·h/mL
- Cmax (CD1, mouse, plasma, po, 5 mg/kg, Table 12, PO Dose: 5 mg/kg, mean, read-out: Cmax, Mean): 0.148 µg/mL
- MRT inf (CD1, mouse, plasma, po, 5 mg/kg, Table 12, PO Dose: 5 mg/kg, mean, read-out: MRTInf—obs, Mean): 5.81 h
- half-life (CD1, mouse, plasma, po, 5 mg/kg, Table 12, PO Dose: 5 mg/kg, mean, read-out: T1/2, Mean (converted)): 4.1 h
- Tmax (CD1, plasma, Table 12, PO Dose: 5 mg/kg, Mouse 4): 0.5 h
- Concentration (Table 9, IV Dose: 1 mg/kg, 24 h, Mouse 1): BLOQ
- Concentration (Table 9, IV Dose: 1 mg/kg, 24 h, Mouse 2): BLOQ
- Concentration (Table 9, IV Dose: 1 mg/kg, 24 h, Mouse 3): BLOQ
- AUClast/D [5]: 169 h·ng/mL per mg/kg
- AUC—% Extrap—obs [5]: 7.32%
- Cl_obs [5]: 5.48 L/h/kg
- AUClast/D [6]: 153 h·ng/mL per mg/kg
- AUC—% Extrap—obs [6]: 7.31%
- Cl_obs [6]: 6.06 L/h/kg
- AUClast/D [7]: 172 h·ng/mL per mg/kg
- AUC—% Extrap—obs [7]: 10.6%
- Cl_obs [7]: 5.18 L/h/kg
- AUClast/D, Mean [8]: 165 h·ng/mL per mg/kg
- AUC—% Extrap—obs, Mean [8]: 8.4%
- C0, Mean [8]: 0.1 µg/mL
- Cl_obs, Mean [8]: 5.58 L/h/kg
- Concentration (Table 11, PO Dose: 5 mg/kg, 24 h, Mouse 4): BLOQ
- Concentration (Table 11, PO Dose: 5 mg/kg, 24 h, Mouse 5): BLOQ
- AUClast/D [9]: 171 h·ng/mL per mg/kg
- AUC—% Extrap—obs [9]: 22.7%
- F [9]: 104%
- AUClast/D [10]: 114 h·ng/mL per mg/kg
- AUC—% Extrap—obs [10]: 28.9%
- F [10]: 69.0%
- AUClast/D [11]: 188 h·ng/mL per mg/kg
- AUC—% Extrap—obs [11]: 2.16%
- F [11]: 107%
- AUClast/D, Mean [12]: 158 h·ng/mL per mg/kg
- AUC—% Extrap—obs, Mean [12]: 17.9%
- F, Mean [12]: 93%
